Measurements from US8987264B2, “1,3,5-triazine derivatives of spiro bicyclic oxalamide-compounds for treatment of hepatitis C” (priority 2012, dated 2015).
Read-outs that look alike come from different tables or passages of the source.

Test system: HCV pseudoparticles, genotype 1a (H77C) E1 and E2 envelope glycoproteins
Assay: HCV pseudoparticle infection assay (luciferase reporter, Huh7 cells)
Assay type: cell-based
Settings: Hepatitis C virus, Huh-7, 48 h, read-out: EC50 (nM) 1a (H77C), HCV pseudoparticles genotype 1a (H77C), Huh7 cells, luciferase 2 days after infection

Row | Structure (SMILES) | EC50 (class symbol) [nM] | EC50 (numeric value) [nM]
1 | O=C(NC1CCCCC1)C(=O)N1CCC2(CCN(C(=O)c3ccc(Nc4nc(NC5(c6ccc(Cl)cc6)CC5)nc(OCC(F)(F)F)n4)cc3)C2)C1 (stereo not drawn) [Compound 1010] | 0.01 to 10 | –
2 | Cc1cc(NC(=O)C(=O)N2CCC3(CCN(C(=O)c4ccc(Nc5nc(NC6(c7ccc(Cl)cc7)CC6)nc(OCC(F)(F)F)n5)cc4)C3)C2)no1 (stereo not drawn) [Compound 1004] | 0.01 to 10 | –
3 | O=C(Nc1ccc(F)cc1F)C(=O)N1CCC2(CCN(C(=O)c3ccc(Nc4nc(NC5(c6ccc(Cl)cc6)CC5)nc(OCC(F)(F)F)n4)cc3)C2)C1 (stereo not drawn) [Compound 1008] | 0.01 to 10 | –
4 | O=C(Nc1cccc(F)c1)C(=O)N1CCC2(CCN(C(=O)c3ccc(Nc4nc(NC5(c6ccc(Cl)cc6)CC5)nc(OCC(F)(F)F)n4)cc3)C2)C1 (stereo not drawn) [Compound 1002] | 0.01 to 10 | –
5 | O=C(C(=O)N1CCC2(CCN(C(=O)c3ccc(Nc4nc(NC5(c6ccc(Cl)cc6)CC5)nc(OCC(F)(F)F)n4)cc3)C2)C1)N1CCc2ccccc2C1 (stereo not drawn) [Compound 1013] | 0.01 to 10 | 4.86
6 | Cc1ccc(NC(=O)C(=O)N2CCC3(CCN(C(=O)c4ccc(Nc5nc(NC6(c7ccc(Cl)cc7)CC6)nc(OCC(F)(F)F)n5)cc4)C3)C2)cc1 (stereo not drawn) [Compound 1007] | 0.01 to 10 | 0.255
7 | Cc1nnc(NC(=O)C(=O)N2CCC3(CCN(C(=O)c4ccc(Nc5nc(NC6(c7ccc(Cl)cc7)CC6)nc(OCC(F)(F)F)n5)cc4)C3)C2)s1 (stereo not drawn) [Compound 1015] | 0.01 to 10 | –
8 | O=C(Nc1cc(F)cc(F)c1)C(=O)N1CCC2(CCN(C(=O)c3ccc(Nc4nc(NC5(c6ccc(Cl)cc6)CC5)nc(OCC(F)(F)F)n4)cc3)C2)C1 (stereo not drawn) [Compound 1009] | 0.01 to 10 | –
9 | O=C(Nc1nccs1)C(=O)N1CCC2(CCN(C(=O)c3ccc(Nc4nc(NC5(c6ccc(Cl)cc6)CC5)nc(OCC(F)(F)F)n4)cc3)C2)C1 (stereo not drawn) [Compound 1012] | 0.01 to 10 | –
10 | O=C(C(=O)N1CCC2(CCN(C(=O)c3ccc(Nc4nc(NC5(c6ccc(Cl)cc6)CC5)nc(OCC(F)(F)F)n4)cc3)C2)C1)N1CCCCC1 (stereo not drawn) [Compound 1011] | 0.01 to 10 | –
11 | O=C(NCc1ccc(F)cc1)C(=O)N1CCC2(CCN(C(=O)c3ccc(Nc4nc(NC5(c6ccc(Cl)cc6)CC5)nc(OCC(F)(F)F)n4)cc3)C2)C1 (stereo not drawn) [Compound 1006] | 0.01 to 10 | –
12 | CC(C)CNC(=O)C(=O)N1CCC2(CCN(C(=O)c3ccc(Nc4nc(NC5(c6ccc(Cl)cc6)CC5)nc(OCC(F)(F)F)n4)cc3)C2)C1 (stereo not drawn) [Compound 1014] | 0.01 to 10 | –
13 | O=C(Nc1ccc(F)cc1)C(=O)N1CCC2(CCN(C(=O)c3ccc(Nc4nc(NC5(c6ccc(Cl)cc6)CC5)nc(OCC(F)(F)F)n4)cc3)C2)C1 (stereo not drawn) [Compound 1003] | 0.01 to 10 | –
14 | NC(=O)C(=O)N1CCC2(CCN(C(=O)c3ccc(Nc4nc(NC5(c6ccc(Cl)cc6)CC5)nc(OCC(F)(F)F)n4)cc3)C2)C1 (stereo not drawn) [Compound 1001] | 0.01 to 10 | 1.64
15 | O=C(Nc1ccccc1)C(=O)N1CCC2(CCN(C(=O)c3ccc(Nc4nc(NC5(c6ccc(Cl)cc6)CC5)nc(OCC(F)(F)F)n4)cc3)C2)C1 (stereo not drawn) [Compound 1005] | 0.01 to 10 | –
